The supplement of paper PMC10307832

Tests used:
Experiment in all cases: relative viability (nuclei count vs DMSO), 5 days (fraction); higher = more cells survive
[1] = compound: CC(C)N(CCCNC(=O)Nc1ccc(C(C)(C)C)cc1)C[C@H]1O[C@@H](n2ccc3c(N)ncnc32)[C@H](O)[C@@H]1O + CS(=O)(=O)CCNCc1ccc(-c2ccc3ncnc(Nc4ccc(OCc5cccc(F)c5)c(Cl)c4)c3c2)o1 [Lapatinib] (partner 2 µM)
Method in brief: (§1)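 Relative viability divides the nuclei count in treated wells by that in vehicle wells. Lung cancer cell lines were seeded in 1536-well plates, dosed by pin tool the next day, and fixed and stained after 5 days in one step with final 0.05% Triton X-100, 1% formaldehyde and 1 ug/ml Hoechst. Dosing was a single drug or a fixed anchor-drug dose plus five library-drug doses (not always all listed) in √10 steps, and values are medians of duplicate plates imaged at 4×.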

[2] = compound: CC(C)N(CCCNC(=O)Nc1ccc(C(C)(C)C)cc1)C[C@H]1O[C@@H](n2ccc3c(N)ncnc32)[C@H](O)[C@@H]1O + Nc1nc2[nH]cc(CCc3ccc(C(=O)N[C@@H](CCC(=O)O)C(=O)O)cc3)c2c(=O)[nH]1 [Pemetrexed] (partner 0.2 µM)
Method in brief: as §1

[3] = compound: CC(C)N(CCCNC(=O)Nc1ccc(C(C)(C)C)cc1)C[C@H]1O[C@@H](n2ccc3c(N)ncnc32)[C@H](O)[C@@H]1O + COc1cccc2cc(-c3nc([C@H]4CC[C@H](C(=O)O)CC4)n4ncnc(N)c34)[nH]c12 [OSI-027] (partner 0.5 µM)
Method in brief: as §1

Shikonin + Foretinib = compound: CC(C)=CC[C@@H](O)C1=CC(=O)c2c(O)ccc(O)c2C1=O [Shikonin] + COc1cc2c(Oc3ccc(NC(=O)C4(C(=O)Nc5ccc(F)cc5)CC4)cc3F)ccnc2cc1OCCCN1CCOCC1 [Foretinib] (partner 0.25 µM)
Method in brief: as §1

Cell Line	relative viability ([1]; first compound 0.08 µM)	relative viability ([1]; first compound 0.253 µM)	relative viability ([1]; first compound 0.8 µM)	relative viability ([1]; first compound 2.53 µM)	relative viability ([1]; first compound 8 µM)	relative viability ([2]; first compound 0.08 µM)	relative viability ([2]; first compound 0.253 µM)	relative viability ([2]; first compound 0.8 µM)	relative viability ([2]; first compound 2.53 µM)	relative viability ([2]; first compound 8 µM)	relative viability ([3]; first compound 0.08 µM)	relative viability ([3]; first compound 0.253 µM)	relative viability ([3]; first compound 0.8 µM)	relative viability ([3]; first compound 2.53 µM)	relative viability ([3]; first compound 8 µM)	relative viability (Shikonin + Foretinib; first compound 0.01 µM)	relative viability (Shikonin + Foretinib; first compound 0.1 µM)	relative viability (Shikonin + Foretinib; first compound 0.3162 µM)	relative viability (Shikonin + Foretinib; first compound 1 µM)
NCI-H838	0.869	0.521	0.953	0.938	0.916	0.259	0.223	0.283	0.245	0.235	0.359	0.408	0.367	0.388	0.476	1.08	1.16	1.2	0.999
NCI-H1355	0.94	0.975		1	0.857	0.964	1.05	0.761	1.03	0.976	0.375	0.473	0.374	0.472	0.428	1.03	1.16	1.04	1.04
NCI-H1395	1.15	1.02		0.94	0.904	0.882	0.705	0.553	0.899	0.922	0.67	0.631	0.57	0.62	0.719	0.955	0.949	0.948	0.939
NCI-H1437	0.703	0.77	0.773	0.722	0.715	0.31	0.307	0.325	0.296	0.283	0.804	0.831	0.81	0.891	0.867	1.37	1.26	1.26	1.27
NCI-H1563	0.862	0.836	0.742	1.05	0.915	0.774	0.585	0.795	0.774	0.782	0.742	0.782	0.73	0.713	0.799	0.935	0.848	1.06	0.902
NCI-H1650	0.753	0.584		0.762	0.884	0.306	0.395	0.34	0.35	0.277	0.567	0.696		0.744	0.703	1.18	1.07	0.985	1.32
NCI-H1651	0.724	0.727	0.586	0.779	0.93	0.654	0.527	0.57	0.599	0.601	0.671	0.556	0.653	0.811	0.77	0.883	0.758	0.93	0.714
NCI-H1666	0.618	0.613	0.427	0.568	0.486	0.895	0.909	0.919	0.796	0.819	0.745	1.04	0.611	0.829	0.755	0.932	1.02	1.01	0.961
NCI-H1734	0.987	1.06	0.976	1.13	0.995	0.397	0.417	0.431	0.417	0.412	0.563	0.612	0.627	0.564	0.6	0.762	0.681	0.869	0.915
